According to PubChem BioAssay (NCI):
Several values for one entry are separate records, joined by “and”; a condition that tells them apart may be missing. Identical values can stand only once.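 1) Cells in 96-well plates. 2) Compound, 48 h, 5 concentrations. 3) Linear interpolation between surrounding doses. 4) Unreached endpoint = highest concentration. The concentration for 50% growth inhibition is given as GI50. Definition used: TGI = concentration required for complete inhibition of growth.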

Experiments:
Experiment in all cases: growth of human tumour cells (NCI), 48 h
LXFL 529 NSCLC = system: LXFL 529 NSCLC
SF-295 CNS = system: SF-295 CNS
HOP-18 NSCLC = system: HOP-18 NSCLC
SK-MEL-5 melanoma = system: SK-MEL-5 melanoma
SF-268 CNS = system: SF-268 CNS
RXF 393 renal = system: RXF 393 renal
SK-MEL-28 melanoma = system: SK-MEL-28 melanoma
M14 melanoma = system: M14 melanoma
RPMI-8226 leukemia = system: RPMI-8226 leukemia
SR leukemia = system: SR leukemia
NCI/ADR-RES ovarian = system: NCI/ADR-RES ovarian

## C/C=C(/CCC1NCCc2c1[nH]c1ccccc21)[Si](C)(C)C (stereo not given)
LXFL 529 NSCLC
  TGI: 3.25 µM
SF-295 CNS
  TGI: > 100 µM and 19.2 µM
HOP-18 NSCLC
  TGI: 24.2 µM
SK-MEL-5 melanoma
  TGI: > 100 µM and 11.8 µM
SF-268 CNS
  TGI: > 100 µM and 29 µM

## CCOc1ccc(OP2(=O)NC(=O)C=C(C)N2)cc1 (stereo not given)
RXF 393 renal
  TGI: > 100 µM
LXFL 529 NSCLC
  TGI: > 100 µM
SK-MEL-28 melanoma
  TGI: > 100 µM
SF-295 CNS
  TGI: > 100 µM
HOP-18 NSCLC
  TGI: > 100 µM
SK-MEL-5 melanoma
  TGI: > 100 µM
M14 melanoma
  TGI: > 100 µM
RPMI-8226 leukemia
  TGI: > 100 µM
SR leukemia
  TGI: > 100 µM
SF-268 CNS
  TGI: > 100 µM

## COC(=O)N/N=c1\cc(C(=O)Nc2ccc(C)c(C)c2)oc2cc(O)ccc12
RXF 393 renal
  TGI: > 100 µM
LXFL 529 NSCLC
  TGI: > 100 µM
SK-MEL-28 melanoma
  TGI: > 100 µM
SF-295 CNS
  TGI: > 100 µM
HOP-18 NSCLC
  TGI: > 100 µM
SK-MEL-5 melanoma
  TGI: > 100 µM
M14 melanoma
  TGI: > 100 µM
SR leukemia
  TGI: > 100 µM
SF-268 CNS
  TGI: > 100 µM

## CC(C)=CCC[C@@H](C)C1=C(N)C(O)=C(C)C(=O)C1=O
RXF 393 renal
  TGI: > 75 µM
NCI/ADR-RES ovarian
  TGI: > 38.8 µM
SK-MEL-28 melanoma
  TGI: > 75 µM
SF-295 CNS
  TGI: > 75 µM
SK-MEL-5 melanoma
  TGI: > 75 µM
M14 melanoma
  TGI: > 75 µM
RPMI-8226 leukemia
  TGI: > 75 µM
SR leukemia
  TGI: > 75 µM
SF-268 CNS
  TGI: > 75 µM

## COc1cc(CCN)c(OC)c(OC)c1
RXF 393 renal
  TGI: > 100 µM
NCI/ADR-RES ovarian
  TGI: > 100 µM
SK-MEL-28 melanoma
  TGI: > 100 µM
SF-295 CNS
  TGI: > 100 µM
SK-MEL-5 melanoma
  TGI: 54.9 µM
M14 melanoma
  TGI: > 100 µM
RPMI-8226 leukemia
  TGI: > 100 µM
SR leukemia
  TGI: > 100 µM
SF-268 CNS
  TGI: > 100 µM

## Cc1nc2ccccc2n1Cc1nnc(-c2ccccc2)o1
RXF 393 renal
  TGI: > 100 µM
NCI/ADR-RES ovarian
  TGI: > 100 µM
SK-MEL-28 melanoma
  TGI: > 100 µM
SF-295 CNS
  TGI: > 100 µM
SK-MEL-5 melanoma
  TGI: > 100 µM
M14 melanoma
  TGI: > 100 µM
RPMI-8226 leukemia
  TGI: > 100 µM
SR leukemia
  TGI: > 100 µM
SF-268 CNS
  TGI: > 100 µM

## NC(CCC(=O)O)C(=O)NC(Cc1ccc(N(CCCl)CCCl)cc1)C(=O)O (stereo not given)
RXF 393 renal
  TGI: > 100 µM
NCI/ADR-RES ovarian
  TGI: > 100 µM
SK-MEL-28 melanoma
  TGI: > 100 µM
SF-295 CNS
  TGI: > 100 µM
SK-MEL-5 melanoma
  TGI: > 100 µM
M14 melanoma
  TGI: > 100 µM
RPMI-8226 leukemia
  TGI: > 100 µM
SR leukemia
  GI50: > 100 µM and 28.5 µM
  TGI: > 100 µM
SF-268 CNS
  TGI: > 100 µM

## S=c1[nH]nc(Cn2c3ccc(Br)cc3c3nc4ccccc4nc32)o1
RXF 393 renal
  TGI: > 60 µM
NCI/ADR-RES ovarian
  TGI: > 100 µM
SK-MEL-28 melanoma
  TGI: > 79.2 µM
SF-295 CNS
  TGI: > 100 µM
SK-MEL-5 melanoma
  TGI: > 100 µM
M14 melanoma
  TGI: > 100 µM
RPMI-8226 leukemia
  TGI: 6.82 µM
SR leukemia
  TGI: > 100 µM
SF-268 CNS
  TGI: > 100 µM

## C/C=C1/C=CC2c3[nH]c4ccccc4c3CCN2C1 (stereo not given)
RXF 393 renal
  TGI: > 400 µM
LXFL 529 NSCLC
  TGI: > 400 µM
SK-MEL-28 melanoma
  TGI: > 400 µM
SF-295 CNS
  TGI: > 400 µM
HOP-18 NSCLC
  TGI: 279 µM
SK-MEL-5 melanoma
  TGI: > 400 µM
RPMI-8226 leukemia
  TGI: > 400 µM
SR leukemia
  TGI: > 400 µM
SF-268 CNS
  TGI: > 400 µM

## COC(=O)c1ccc(CCC2=CC(=O)C=CC2=O)cc1
RXF 393 renal
  TGI: 25.3 µM
NCI/ADR-RES ovarian
  TGI: 61.2 µM
SK-MEL-28 melanoma
  TGI: 26 µM
SF-295 CNS
  TGI: 30.6 µM
SK-MEL-5 melanoma
  TGI: 30.2 µM
M14 melanoma
  TGI: 32.4 µM
RPMI-8226 leukemia
  TGI: 5.71 µM
SR leukemia
  TGI: 5.82 µM
SF-268 CNS
  TGI: 31.7 µM

## COC(=O)[C@@H]1Cc2ccc(OC)c(c2)OCCC(=O)N1
RXF 393 renal
  TGI: > 100 µM
NCI/ADR-RES ovarian
  TGI: > 100 µM
SK-MEL-28 melanoma
  TGI: > 100 µM
SF-295 CNS
  TGI: > 100 µM
SK-MEL-5 melanoma
  TGI: > 100 µM
M14 melanoma
  TGI: > 100 µM
RPMI-8226 leukemia
  TGI: > 100 µM
SR leukemia
  TGI: > 100 µM
SF-268 CNS
  TGI: > 100 µM

## CC(C)(C)OC(=O)/N=C/c1c(O)c2ccccc2oc1=O
RXF 393 renal
  TGI: > 100 µM
NCI/ADR-RES ovarian
  TGI: > 100 µM
SK-MEL-28 melanoma
  TGI: > 100 µM
SF-295 CNS
  TGI: > 100 µM
SK-MEL-5 melanoma
  TGI: > 100 µM
M14 melanoma
  TGI: > 100 µM
RPMI-8226 leukemia
  TGI: > 100 µM
SR leukemia
  TGI: > 100 µM
SF-268 CNS
  TGI: > 100 µM

## CCN(CC)/[N+]([O-])=N/OS(=O)(=O)N(C)C
RXF 393 renal
  TGI: > 100 µM
NCI/ADR-RES ovarian
  TGI: > 100 µM
SK-MEL-28 melanoma
  TGI: > 100 µM
SF-295 CNS
  TGI: > 100 µM
SK-MEL-5 melanoma
  TGI: > 100 µM
M14 melanoma
  TGI: > 100 µM
RPMI-8226 leukemia
  TGI: > 100 µM
SR leukemia
  TGI: > 100 µM
SF-268 CNS
  TGI: > 100 µM

## O=S1(=O)C(=C(c2ccccc2)c2ccccc2)S(=O)(=O)c2ccccc21
RXF 393 renal
  TGI: > 100 µM
NCI/ADR-RES ovarian
  TGI: > 100 µM
SK-MEL-28 melanoma
  TGI: > 100 µM
SF-295 CNS
  TGI: > 66.4 µM
HOP-18 NSCLC
  TGI: > 100 µM
SK-MEL-5 melanoma
  TGI: > 100 µM
RPMI-8226 leukemia
  TGI: > 100 µM
SF-268 CNS
  TGI: > 100 µM

## O=C(O)c1ccccc1/C=C1\Cc2cc3c(cc2C1=O)CCC3
RXF 393 renal
  TGI: 56.5 µM
NCI/ADR-RES ovarian
  TGI: 66.2 µM
SK-MEL-28 melanoma
  TGI: > 100 µM
SF-295 CNS
  TGI: 74.7 µM
SK-MEL-5 melanoma
  TGI: 38.1 µM
M14 melanoma
  TGI: 53.7 µM
RPMI-8226 leukemia
  TGI: 55.2 µM
SR leukemia
  TGI: 28.1 µM
SF-268 CNS
  TGI: > 100 µM

## NCCc1ccc(S(=O)(=O)O)cc1[N+](=O)[O-]
RXF 393 renal
  TGI: > 100 µM
NCI/ADR-RES ovarian
  TGI: > 100 µM
SK-MEL-28 melanoma
  TGI: > 100 µM
SF-295 CNS
  TGI: > 100 µM
SK-MEL-5 melanoma
  TGI: > 100 µM
M14 melanoma
  TGI: > 100 µM
RPMI-8226 leukemia
  TGI: > 100 µM
SR leukemia
  TGI: > 100 µM
SF-268 CNS
  TGI: > 100 µM

## COc1ccc(/C=C2\C[C@H]3[C@@H]4CC=C5C[C@@H](O)CC[C@]5(C)[C@H]4CC[C@]3(C)\C2=N\O)cc1
RXF 393 renal
  TGI: > 100 µM
NCI/ADR-RES ovarian
  TGI: > 100 µM
SK-MEL-28 melanoma
  TGI: 72.8 µM
SF-295 CNS
  TGI: 34.8 µM
SK-MEL-5 melanoma
  TGI: 23.3 µM
M14 melanoma
  TGI: 40.3 µM
RPMI-8226 leukemia
  TGI: 21.9 µM
SR leukemia
  TGI: 19 µM
SF-268 CNS
  TGI: 46.2 µM
